Source: patent US20040014047A1, “Antisense modulation of LIM domain kinase 1 expression” (Isis Pharmaceuticals Inc., priority 2002, published 2004)
Strand notation (5' to 3'): a small letter for the sugar, then the base; units joined by * are phosphorothioate-linked, units joined directly phosphodiester-linked; [ ] holds rarer units or linkages, { } end groups; capitals alone tell only the bases. e = 2'-O-(2-methoxyethyl) (MOE); [5mC] = 5-methylcytosine; d = 2'-deoxy (DNA)

What was measured:
[1] = test system: LIM domain kinase 1 mRNA; test: Antisense inhibition of LIM domain kinase 1 expression, dose response in A549 cells, real-time quantitative PCR; type: cell-based, human; conditions: for Percent Inhibition of LIM Domain Kinase 1 mRNA Levels: averaged from two experiments, normalized to untreated control; for reduction of LIM domain kinase 1 mRNA levels (dose response): 6, 25, 100 and 400 nM
Experimental: When cells reached 70% confluency, they were treated with oligonucleotide. […] Cells were harvested 16-24 hours after oligonucleotide treatment.
PCR reagents were obtained from Invitrogen Corporation, (Carlsbad, Calif.).
Probes and primers to human LIM domain kinase 1 were designed to hybridize to a human LIM domain kinase 1 sequence, using published sequence information (GenBank accession number D26309.1, incorporated herein as SEQ ID NO:4). For human LIM domain kinase 1 the PCR primers were: forward primer: […] (SEQ ID NO: 5) reverse primer: […] (SEQ ID NO: 6) and the PCR probe was: FAM-[…]-TAMRA (SEQ ID NO: 7) where FAM is the fluorescent dye and TAMRA is the quencher dye.
In accordance with the present invention, three of the oligonucleotides targeted to LIM domain kinase 1: ISIS 206212 ([…], SEQ ID NO: 67), ISIS 206219 ([…], SEQ ID NO: 74) and ISIS 206214 ([…], SEQ ID NO: 69) were investigated in a dose response experiment. The scrambled control oligonucleotides used in the dose response study were ISIS 129695 ([…], SEQ ID NO: 147), and ISIS 114845 ([…], SEQ ID NO: 148).
All cytidine residues are 5-methylcytidines.
In the dose-response experiment, with mRNA levels as the endpoint, A549 cells were treated with ISIS 206212, ISIS 206219, ISIS 206214 and control oligonucleotides at doses of 6, 25, 100 and 400 nM oligonucleotide. Data were obtained by real-time quantitative PCR as described in other examples herein and are averaged from two experiments with mRNA levels in the treatment groups, (including the scrambled control), being normalized to an untreated control group.

[2] = test system: human LIM domain kinase 1 mRNA; test: Antisense inhibition of human LIM domain kinase 1 mRNA levels, quantitative real-time PCR, A549 cells (screen); type: cell-based; conditions: for % INHIB (inhibition of human LIM domain kinase 1 mRNA levels): quantitative real-time PCR, averages from two experiments, screening concentration not given (50 nM to 300 nM used herein); for inhibition of human LIM domain kinase 1 expression (text summary of Table 1): real-time PCR, bound stated
Procedure, shortened: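 A549 cells at 70% confluency treated with antisense oligonucleotides (all cytidines 5-methylcytidine), harvested 16-24 h later. LIMK1 mRNA measured by real-time RT-PCR with FAM/TAMRA probe, normalized to total RNA by RiboGreen; values are averages of two experiments.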

## 114845 (eT*eA*e[5mC]*eG*eT*d[5mC]*d[5mC]*dG*dG*dA*dG*dG*d[5mC]*dG*dT*eA*e[5mC]*eG*e[5mC]*e[5mC]) [compound 114845]
[1]; dose 6 nM
  Percent Inhibition of LIM Domain Kinase 1 mRNA Levels: 0%
[1]; dose 25 nM
  Percent Inhibition of LIM Domain Kinase 1 mRNA Levels: 0%
[1]; dose 100 nM
  Percent Inhibition of LIM Domain Kinase 1 mRNA Levels: 0%
[1]; dose 400 nM
  Percent Inhibition of LIM Domain Kinase 1 mRNA Levels: 24%

## 129695 (eT*eT*e[5mC]*eT*eA*d[5mC]*d[5mC]*dT*d[5mC]*dG*d[5mC]*dG*d[5mC]*dG*dA*eT*eT*eT*eA*e[5mC]) [compound 129695]
[1]; dose 6 nM
  Percent Inhibition of LIM Domain Kinase 1 mRNA Levels: 2%
[1]; dose 25 nM
  Percent Inhibition of LIM Domain Kinase 1 mRNA Levels: 0%
[1]; dose 100 nM
  Percent Inhibition of LIM Domain Kinase 1 mRNA Levels: 12%
[1]; dose 400 nM
  Percent Inhibition of LIM Domain Kinase 1 mRNA Levels: 62%

## 206212 (antisense eA*e[5mC]*eT*e[5mC]*e[5mC]*d[5mC]*d[5mC]*dA*dT*dT*dT*dG*dG*dT*dT*e[5mC]*e[5mC]*eT*eG*eG) [compound 206212]
[2]
  % INHIB (inhibition of human LIM domain kinase 1 mRNA levels): 91%
[1]; dose 6 nM
  Percent Inhibition of LIM Domain Kinase 1 mRNA Levels: 0%
[1]; dose 25 nM
  Percent Inhibition of LIM Domain Kinase 1 mRNA Levels: 73%
[1]; dose 100 nM
  Percent Inhibition of LIM Domain Kinase 1 mRNA Levels: 91%
[1]; dose 400 nM
  Percent Inhibition of LIM Domain Kinase 1 mRNA Levels: 97%

## 206214 (antisense e[5mC]*e[5mC]*eG*eG*e[5mC]*d[5mC]*dA*dG*dG*dG*d[5mC]*dA*d[5mC]*d[5mC]*dG*e[5mC]*eA*eG*e[5mC]*eT) [compound 206214]
[2]
  % INHIB (inhibition of human LIM domain kinase 1 mRNA levels): 87%
[1]; dose 6 nM
  Percent Inhibition of LIM Domain Kinase 1 mRNA Levels: 0%
[1]; dose 25 nM
  Percent Inhibition of LIM Domain Kinase 1 mRNA Levels: 46%
[1]; dose 100 nM
  Percent Inhibition of LIM Domain Kinase 1 mRNA Levels: 84%
[1]; dose 400 nM
  Percent Inhibition of LIM Domain Kinase 1 mRNA Levels: 98%

## 206219 (antisense eT*eG*e[5mC]*eA*e[5mC]*dT*dG*dA*dG*dA*dA*dA*dG*d[5mC]*dT*eT*e[5mC]*eA*e[5mC]*eA) [compound 206219]
[2]
  % INHIB (inhibition of human LIM domain kinase 1 mRNA levels): 89%
[1]; dose 6 nM
  Percent Inhibition of LIM Domain Kinase 1 mRNA Levels: 0%
[1]; dose 25 nM
  Percent Inhibition of LIM Domain Kinase 1 mRNA Levels: 67%
[1]; dose 100 nM
  Percent Inhibition of LIM Domain Kinase 1 mRNA Levels: 84%
[1]; dose 400 nM
  Percent Inhibition of LIM Domain Kinase 1 mRNA Levels: 93%

## actccccatttggttcctgg (eA*e[5mC]*eT*e[5mC]*e[5mC]*d[5mC]*d[5mC]*dA*dT*dT*dT*dG*dG*dT*dT*e[5mC]*e[5mC]*eT*eG*eG; antisense) [ISIS 206212]
[2]
  inhibition of human LIM domain kinase 1 expression (text summary of Table 1): at least 65%
[1]
  reduction of LIM domain kinase 1 mRNA levels (dose response): capable of reducing LIM domain kinase 1 mRNA levels in a dose-dependent manner

## ccggccagggcaccgcagct (e[5mC]*e[5mC]*eG*eG*e[5mC]*d[5mC]*dA*dG*dG*dG*d[5mC]*dA*d[5mC]*d[5mC]*dG*e[5mC]*eA*eG*e[5mC]*eT; antisense) [ISIS 206214]
[2]
  inhibition of human LIM domain kinase 1 expression (text summary of Table 1): at least 65%
[1]
  reduction of LIM domain kinase 1 mRNA levels (dose response): capable of reducing LIM domain kinase 1 mRNA levels in a dose-dependent manner

## ggcccagtagtccttcttgc (eG*eG*e[5mC]*e[5mC]*e[5mC]*dA*dG*dT*dA*dG*dT*d[5mC]*d[5mC]*dT*dT*e[5mC]*eT*eT*eG*e[5mC]; antisense) [ISIS 206174]
[2]
  inhibition of human LIM domain kinase 1 expression (text summary of Table 1): at least 65%

## ggcgtgccattgatttccaa (eG*eG*e[5mC]*eG*eT*dG*d[5mC]*d[5mC]*dA*dT*dT*dG*dA*dT*dT*eT*e[5mC]*e[5mC]*eA*eA; antisense) [ISIS 206186]
[2]
  inhibition of human LIM domain kinase 1 expression (text summary of Table 1): at least 65%

## ggtccttgcgctgggaggcc (eG*eG*eT*e[5mC]*e[5mC]*dT*dT*dG*d[5mC]*dG*d[5mC]*dT*dG*dG*dG*eA*eG*eG*e[5mC]*e[5mC]; antisense) [ISIS 206233]
[2]
  inhibition of human LIM domain kinase 1 expression (text summary of Table 1): at least 65%

## gtcaacctcatgcactcgac (eG*eT*e[5mC]*eA*eA*d[5mC]*d[5mC]*dT*d[5mC]*dA*dT*dG*d[5mC]*dA*d[5mC]*eT*e[5mC]*eG*eA*e[5mC]; antisense) [ISIS 206163]
[2]
  inhibition of human LIM domain kinase 1 expression (text summary of Table 1): at least 65%

## gtcacaacacctgcaggaga (eG*eT*e[5mC]*eA*e[5mC]*dA*dA*d[5mC]*dA*d[5mC]*d[5mC]*dT*dG*d[5mC]*dA*eG*eG*eA*eG*eA; antisense) [ISIS 206229]
[2]
  inhibition of human LIM domain kinase 1 expression (text summary of Table 1): at least 65%

## gtctcggtggatgatgttca (eG*eT*e[5mC]*eT*e[5mC]*dG*dG*dT*dG*dG*dA*dT*dG*dA*dT*eG*eT*eT*e[5mC]*eA; antisense) [ISIS 206202]
[2]
  inhibition of human LIM domain kinase 1 expression (text summary of Table 1): at least 65%

## gtggccctggctcagtcggg (eG*eT*eG*eG*e[5mC]*d[5mC]*d[5mC]*dT*dG*dG*d[5mC]*dT*d[5mC]*dA*dG*eT*e[5mC]*eG*eG*eG; antisense) [ISIS 206207]
[2]
  inhibition of human LIM domain kinase 1 expression (text summary of Table 1): at least 65%

## gtttctgccgggcagagctg (eG*eT*eT*eT*e[5mC]*dT*dG*d[5mC]*d[5mC]*dG*dG*dG*d[5mC]*dA*dG*eA*eG*e[5mC]*eT*eG; antisense) [ISIS 206189]
[2]
  inhibition of human LIM domain kinase 1 expression (text summary of Table 1): at least 65%

## tagcgggcccagtagtcctt (eT*eA*eG*e[5mC]*eG*dG*dG*d[5mC]*d[5mC]*d[5mC]*dA*dG*dT*dA*dG*eT*e[5mC]*e[5mC]*eT*eT; antisense) [ISIS 206175]
[2]
  inhibition of human LIM domain kinase 1 expression (text summary of Table 1): at least 65%

## tcacggtgtgtcaccttgat (eT*e[5mC]*eA*e[5mC]*eG*dG*dT*dG*dT*dG*dT*d[5mC]*dA*d[5mC]*d[5mC]*eT*eT*eG*eA*eT; antisense) [ISIS 206195]
[2]
  inhibition of human LIM domain kinase 1 expression (text summary of Table 1): at least 65%

## tccaggcatcgcatgacctt (eT*e[5mC]*e[5mC]*eA*eG*dG*d[5mC]*dA*dT*d[5mC]*dG*d[5mC]*dA*dT*dG*eA*e[5mC]*e[5mC]*eT*eT; antisense) [ISIS 206198]
[2]
  inhibition of human LIM domain kinase 1 expression (text summary of Table 1): at least 65%

## tccttcttgcagaagagctg (eT*e[5mC]*e[5mC]*eT*eT*d[5mC]*dT*dT*dG*d[5mC]*dA*dG*dA*dA*dG*eA*eG*e[5mC]*eT*eG; antisense) [ISIS 206172]
[2]
  inhibition of human LIM domain kinase 1 expression (text summary of Table 1): at least 65%

## tcgagggtcagctggagcag (eT*e[5mC]*eG*eA*eG*dG*dG*dT*d[5mC]*dA*dG*d[5mC]*dT*dG*dG*eA*eG*e[5mC]*eA*eG; antisense) [ISIS 206188]
[2]
  inhibition of human LIM domain kinase 1 expression (text summary of Table 1): at least 65%

## tgcactgagaaagcttcaca (eT*eG*e[5mC]*eA*e[5mC]*dT*dG*dA*dG*dA*dA*dA*dG*d[5mC]*dT*eT*e[5mC]*eA*e[5mC]*eA; antisense) [ISIS 206219]
[2]
  inhibition of human LIM domain kinase 1 expression (text summary of Table 1): at least 65%
[1]
  reduction of LIM domain kinase 1 mRNA levels (dose response): capable of reducing LIM domain kinase 1 mRNA levels in a dose-dependent manner

## tggatggaattcttcacatc (eT*eG*eG*eA*eT*dG*dG*dA*dA*dT*dT*d[5mC]*dT*dT*d[5mC]*eA*e[5mC]*eA*eT*e[5mC]; antisense) [ISIS 206183]
[2]
  inhibition of human LIM domain kinase 1 expression (text summary of Table 1): at least 65%

## tgtccatgctcttgatgatg (eT*eG*eT*e[5mC]*e[5mC]*dA*dT*dG*d[5mC]*dT*d[5mC]*dT*dT*dG*dA*eT*eG*eA*eT*eG; antisense) [ISIS 206199]
[2]
  inhibition of human LIM domain kinase 1 expression (text summary of Table 1): at least 65%

## ttcttccctccaggtgcaac (eT*eT*e[5mC]*eT*eT*d[5mC]*d[5mC]*d[5mC]*dT*d[5mC]*d[5mC]*dA*dG*dG*dT*eG*e[5mC]*eA*eA*e[5mC]; antisense) [ISIS 206166]
[2]
  inhibition of human LIM domain kinase 1 expression (text summary of Table 1): at least 65%
